{
  "source": "paper PMC6988309",
  "about": "“Preclinical efficacy for a novel tyrosine kinase inhibitor, ArQule 531 against acute myeloid leukemia” (Journal of Hematology & Oncology, 2020)",
  "key": {"[1]": {"system": "Ba/F3 FLT3-ITD pMIT SYK-TEL", "experimental": "(§2) CellTiter 96 Aqueous MTS reagent (Promega, Madison, WI) was added to cells followed by a 3-h incubation at 37 °C, 5% CO2. The absorbance was measured at 490 nm using DTX 880 plate reader and the half maximal inhibitory concentration (IC50) was calculated using GraphPad Prism 7 (GraphPad Software, La Jolla, CA) and SAS/STAT software (SAS v9.4 for Windows, SAS Institute, Inc., Cary, NC)."}, "[2]": {"system": "Ba/F3 FLT3-ITD/F691L", "experiment": "MTT proliferation assay 72 h, Ba/F3 FLT3-ITD/F691L", "type": "cell-based, murine", "settings": "Mus musculus, BaF3, read-out: Estimated absolute µM IC50 and 95% CI", "experimental": "(§3) For the MOLM-13 resistant and the Ba/F3-FLT3-ITD/TKD cell lines, cells were treated for 72 h and cell viability was evaluated using MTT assay (Roche Diagnostics. Mannheim. Germany) according to the manufacturer’s instructions."}, "[3]": {"system": "phosphorylated SYK (tyrosine 525/526)", "experiment": "Immunoblot of phospho-SYK Tyr525/526", "type": "cell-based, human", "settings": "MOLM-13, MV4-11, and OCI-AML3, 10-min treatment", "method": "(§1) Cell lines were serum starved overnight followed by a 10-min treatment. Cells were washed in ice-cold PBS then lysed in 1X Cell Lysis Buffer (CST) supplemented with proteinase and phosphatase inhibitors cocktail (Roche). Pierce BCA Protein Assay was used to quantify the protein lysates (Thermo Fisher Scientific, Waltham, MA). For Immunoblotting, 15–25 μg of protein lysate was prepared in 2X or 4X Laemmeli’s sample buffer (Bio-Rad Laboratories, Hercules, CA) and heated for 5 min at 100 °C. Samples were separated on 8% sodium dodecyl sulfate polyacrylamide gel and transferred onto nitrocellulose membrane (Bio-Rad Laboratories, Hercules, CA). The membranes were blocked for 1 h in Blocker BLOTTO Blocking Buffer (Thermo Fisher Scientific, Waltham, MA) or 5% non-fat milk followed by overnight incubation at 4 °C with primary antibody followed by HRP-conjugated secondary antibodies and visualized with chemiluminescent Pierce ECL Substrate (Thermo Fisher Scientific, Waltham, MA) on X-ray films.\nFig. 3 ARQ 531 modulates AML pro-survival kinases. Immunoblot analysis for MOLM-13, MV4-11, and OCI-AML3 AML cell lines (representative of 2-3 independent blots). […] Twenty to 25 μg of total protein lysate was loaded per lane. GAPDH, HSP90, or β-Actin were used as loading controls. a, b Modulation of phosphorylated SFK and downstream targets in FLT3-ITD cell lines MOLM-13 and MV-11, respectively. c, d Modulation of phosphorylated SYK and BTK in all three cell lines"}, "[4]": {"system": "Ba/F3 FLT3-ITD/D835Y", "experiment": "MTT proliferation assay 72 h, Ba/F3 FLT3-ITD/D835Y", "type": "cell-based, murine", "settings": "Mus musculus, BaF3, read-out: Estimated absolute µM IC50 and 95% CI", "experimental": "as §3"}, "[5]": {"system": "Ba/F3 FLT3-ITD pMIT-Empty", "experimental": "as §2"}, "[6]": {"experiment": "MTT proliferation assay 72 h, Ba/F3 lines with FLT3-ITD, TKD or both (all lines together)", "type": "cell-based, murine", "settings": "Mus musculus, BaF3, range across cell lines, read-out: IC50 range over the Ba/F3 FLT3 mutant cell lines"}, "[7]": {"system": "THP-1", "experiment": "MTS proliferation assay 72 h, THP-1", "type": "cell-based, human", "experimental": "(§4) A total of 5000–30,000 cells from the lines above were treated in a 96-well plate for 72 h. CellTiter 96 Aqueous MTS reagent (Promega, Madison, WI) was added to cells followed by a 3-h incubation at 37 °C, 5% CO2. The absorbance was measured at 490 nm using DTX 880 plate reader and the half maximal inhibitory concentration (IC50) was calculated using GraphPad Prism 7 (GraphPad Software, La Jolla, CA) and SAS/STAT software (SAS v9.4 for Windows, SAS Institute, Inc., Cary, NC). For the MOLM-13 resistant and the Ba/F3-FLT3-ITD/TKD cell lines, cells were treated for 72 h and cell viability was evaluated using MTT assay (Roche Diagnostics. Mannheim. Germany) according to the manufacturer’s instructions."}, "[8]": {"system": "phosphorylation of Tyrosine 416 of the SFK", "experiment": "Immunoblot of phospho-SFK Tyr416", "type": "cell-based, human", "settings": "MOLM-13, MV4-11, and OCI-AML3, 10-min treatment", "method": "as §1\nImmunoblot analysis for MOLM-13, MV4-11, and OCI-AML3 AML cell lines (representative of 2-3 independent blots). […] Twenty to 25 μg of total protein lysate was loaded per lane."}, "[9]": {"system": "OCI-AML3", "experiment": "MTS proliferation assay 72 h, OCI-AML3", "type": "cell-based", "settings": "Homo sapiens, OCI-AML-3, read-out: Estimated absolute µM IC50 (95% CI), 4-parameter logistic model", "experimental": "(§5) A total of 5000–30,000 cells from the lines above were treated in a 96-well plate for 72 h. CellTiter 96 Aqueous MTS reagent (Promega, Madison, WI) was added to cells followed by a 3-h incubation at 37 °C, 5% CO2. The absorbance was measured at 490 nm using DTX 880 plate reader and the half maximal inhibitory concentration (IC50) was calculated using GraphPad Prism 7 (GraphPad Software, La Jolla, CA) and SAS/STAT software (SAS v9.4 for Windows, SAS Institute, Inc., Cary, NC)."}, "[10]": {"system": "Ba/F3 FLT3-D835Y", "experiment": "MTT proliferation assay 72 h, Ba/F3 FLT3-D835Y", "type": "cell-based, murine", "settings": "Mus musculus, BaF3, read-out: Estimated absolute µM IC50 and 95% CI", "experimental": "as §3"}, "[11]": {"system": "primary AML patient blasts", "experiment": "MTS proliferation assay, primary AML blasts co-cultured with HS5-GFP stroma cells, 96 h", "type": "cell-based, human", "settings": "HS5-GFP co-culture", "description": "For in vitro cytotoxicity experiments (Fig. 1b–d), repeated measures models were used to account for correlations among observations from the same experiment. The percentage of live cells was compared at each concentration with DMSO. […] Mixed effects models were used in experiments described in Additional file 1: Table S4 and Fig. 2c to account for correlations within a single patient. Outcome data were first log-transformed to stabilize variances and reduce skewness. For survival experiments (Figs. 5 and 6a), Kaplan-Meier curves were produced and group differences for Fig. 5 and assessed by the log-rank test and for Fig. 6a, p values have been adjusted for multiple comparisons using Holm’s procedure. p values from experiments with multiple endpoints were adjusted for multiple comparisons using either Holm’s procedure or Dunnett’s test (all comparisons against vehicle/DMSO).\nMTS proliferation assay using a human stroma co-culture assay. […] FLT3 wild-type (WT) samples (red) and FLT3-ITD (black). Colony-Forming Unit-Granulocyte and Macrophage (CFU-GM) assay. […] Number of colonies were counted after 14 days (c)"}, "[12]": {"system": "Ba/F3 GFP+IL3", "experiment": "MTT proliferation assay 72 h, Ba/F3 GFP+IL3", "type": "cell-based, murine", "experimental": "as §4"}, "[13]": {"system": "MOLM13-Res", "experiment": "MTT proliferation assay 72 h, MOLM13-Res (D835Y)", "type": "cell-based, human", "description": "As one of the main resistance mechanisms to FLT3 inhibitors is the acquisition of TKD mutations, we tested the anti-proliferative activity of ARQ 531 in the MOLM-13 TKI-resistant (MOLM13-Res) cell line previously described in Zimmerman et al.. In this model, MOLM-13 cells have gained a D835Y mutation via continuous exposure to the FLT3 inhibitor tandutinib."}, "[14]": {"system": "MV4-11", "experiment": "MTS proliferation assay 72 h, MV4-11", "type": "cell-based", "settings": "Homo sapiens, MV4-11, read-out: Estimated absolute µM IC50 (95% CI), 4-parameter logistic model", "experimental": "as §5"}, "[15]": {"system": "MOLM13", "experiment": "MTT proliferation assay 72 h, parental MOLM13", "type": "cell-based, human", "experimental": "as §4"}, "[16]": {"system": "MOLM-13, MV4-11, and OCI-AML3 cell lines", "experiment": "Annexin/PI apoptosis assay 72 h", "type": "cell-based, human", "settings": "increasing concentrations of ARQ 531 or 50 nM gilteritinib", "method": "Cells were treated for 72 h then stained for 20 min in 1X Annexin Binding buffer (BD Biosciences, Franklin Lakes, NJ) containing Annexin V-FITC and Propidium Iodine (Leinco Technologies, Fenton, MO). Live and apoptotic cells were measured using FC 500 flow cytometer and analyzed on Kaluza software (Beckman Coulter, Pasadena, CA)."}, "[17]": {"system": "MOLM-13", "experiment": "MTS proliferation assay 72 h, MOLM-13", "experimental": "as §4"}, "[18]": {"settings": "cited from earlier work"}},
  "note": "Several values for one entry are separate records, joined by “and”; a condition that tells them apart may be missing. Equal values may be shown once. Read-outs that look alike come from different tables or passages of the source.",
  "data": [
    {"smiles": "O=C(c1ccc(Oc2ccccc2)cc1Cl)c1c[nH]c2ncnc(N[C@@H]3CC[C@@H](CO)OC3)c12", "note": "[ARQ 531]", "values": [
      {"measurement": "IC50", "setting": "[1]", "result": "11 µM and 5.94 µM and 6.61 µM"},
      {"measurement": "IC50", "setting": "[2]", "result": 7.12, "unit": "µM"},
      {"measurement": "effect on phosphorylated SYK (tyrosine 525/526)", "setting": "[3]", "result": "inhibited the phosphorylated levels of SYK"},
      {"measurement": "IC50", "setting": "[4]", "result": 7.55, "unit": "µM"},
      {"measurement": "IC50", "setting": "[5]", "result": "4.24 µM and 2.7 µM and 3.48 µM"},
      {"measurement": "IC50", "setting": "[6]", "result": "1.2 to 7.6", "unit": "µM"},
      {"measurement": "resistant to concentrations up to", "setting": "[7]", "result": "> 10", "unit": "µM"},
      {"measurement": "Estimated absolute µM IC50 (95% CI)", "setting": "[7]; 4-parameter logistic model", "result": "Unable to calculate IC50"},
      {"measurement": "inhibition of phosphorylation of Tyrosine 416 of the SFK", "setting": "[8]", "result": "potently inhibited"},
      {"measurement": "IC50", "setting": "[9]", "result": 1.51, "unit": "µM"},
      {"measurement": "IC50", "setting": "[10]", "result": 6.11, "unit": "µM"},
      {"measurement": "Estimated Ratio of proliferation versus vehicle (DMSO)", "setting": "[11]; 0.005 µM", "result": 0.91},
      {"measurement": "Estimated Ratio of proliferation versus vehicle (DMSO)", "setting": "[11]; 0.01 µM", "result": 0.95},
      {"measurement": "Estimated Ratio of proliferation versus vehicle (DMSO)", "setting": "[11]; 0.05 µM", "result": 0.92},
      {"measurement": "Estimated Ratio of proliferation versus vehicle (DMSO)", "setting": "[11]; 0.1 µM", "result": 0.9},
      {"measurement": "Estimated Ratio of proliferation versus vehicle (DMSO)", "setting": "[11]; 0.5 µM", "result": 0.69},
      {"measurement": "Estimated Ratio of proliferation versus vehicle (DMSO)", "setting": "[11]; 1 µM", "result": 0.58},
      {"measurement": "Estimated Ratio of proliferation versus vehicle (DMSO)", "setting": "[11]; 5 µM", "result": 0.34},
      {"measurement": "Estimated Ratio of proliferation versus vehicle (DMSO)", "setting": "[11]; 10 µM", "result": 0.28},
      {"measurement": "Estimated Ratio of proliferation versus vehicle (DMSO)", "setting": "[11]; 50 µM", "result": 0.09},
      {"measurement": "Estimated absolute µM IC50 and 95% CI", "setting": "[12]", "result": "Unable to calculate IC50"},
      {"measurement": "IC50", "setting": "[13]; Homo sapiens, read-out: Estimated absolute µM IC50 and 95% CI, MTT, 72 h", "result": 3.42, "unit": "µM"},
      {"measurement": "IC50", "setting": "[13]; read-out: Estimated absolute µM IC50 and 95% CI, MTT", "result": 3.4, "unit": "µM"},
      {"measurement": "IC50", "setting": "[14]", "result": 1.45, "unit": "µM"},
      {"measurement": "IC50", "setting": "[15]; Homo sapiens, MOLM-13, 72 h, read-out: Estimated absolute µM IC50 and 95% CI, MTT, 72 h", "result": 1.33, "unit": "µM"},
      {"measurement": "IC50", "setting": "[15]; read-out: Estimated absolute µM IC50 and 95% CI, MTT, 72 h", "result": 1.3, "unit": "µM"},
      {"measurement": "apoptosis / cytotoxicity (Annexin/PI)", "setting": "[16]", "result": "induced cell apoptosis"},
      {"measurement": "IC50", "setting": "[17]; Homo sapiens, MOLM-13, 72 h, read-out: Estimated absolute µM IC50 (95% CI)", "result": 0.69, "unit": "µM"},
      {"measurement": "in vitro anti-proliferative activity", "setting": "[17]; MOLM-13, 1 µM, 72 hours MTS (ibrutinib 1 hour washout)", "result": "demonstrated in vitro anti-proliferative activity"},
      {"measurement": "Cmax", "setting": "[18]; 65 mg daily dose", "result": "~3000", "unit": "nM"},
      {"measurement": "concentration steady-state levels", "setting": "[18]; ongoing phase 1 dose escalation trial in relapsed or refractory CLL", "result": "exceeding 1 μM"}
    ]}
  ]
}
